Reference: patent US20240279201A1, “DUAL WNT SIGNALING PATHWAY INHIBITORS AND AMPK ACTIVATORS FOR TREATMENTS OF DISEASE” (priority 2021, published 2024)

How the values were obtained:
[1] = tested on: Wnt/β-Catenin signaling pathway; assay: Wnt signaling luciferase (TOPflash) reporter gene assay; type: cell-based; details: for IC50: luciferase reporter gene assay, mean of three independent experiments, read-out: IC50 (nM) to inhibit the Wnt signaling activity
From the text: A dual-luciferase gene reporter assay was used to test inhibitory activities of new compounds on Wnt signaling. […] Therefore, the effects of new compounds on AMPK was examined. […]

[2] = Cytotoxicity (CC50) during the luciferase gene reporter assay; type: cell-based; details: human, HEK293 cells; short treatment duration of the luciferase gene reporter assay

| IC50 [1] | SMILES | CC50 [2] | inhibition at 1 µM [1] |
| --- | --- | --- | --- |
| 9.5 nM | COc1ccccc1-n1ncc(C(=O)Nc2nc3ccccc3s2)c1C [YA7020, N-(Benzo[d]thiazol-2-yl)-1-(2-methoxyphenyl)-5-methyl-1H-pyrazole-4-carboxamide] | > 92 µM |  |
| > 1000 nM | Cc1ccccc1-n1nnc(C(=O)Nc2ccc3cc(O)ccc3n2)c1C [YA6079] | > 92 µM |  |
| > 1000 nM | Cc1ccccc1-n1ncc(C(=O)Nc2ncc(-c3ccccc3)s2)c1C [YA7019, 5-Methyl-N-(5-phenylthiazol-2-yl)-1-(o-tolyl)-1H-pyrazole-4-carboxamide] | > 92 µM |  |
| 5.8 nM | Cc1c(C(=O)Nc2nc3ccccc3s2)cnn1-c1ccccc1Br [YA4033, N-(Benzo[d]thiazol-2-yl)-1-(2-bromophenyl)-5-methyl-1H-pyrazole-4-carboxamide] | > 92 µM |  |
| 6 nM | Cc1c(C(=O)Nc2cnc3ccccc3n2)nnn1-c1ccccc1C#N [YA6137, 1-(2-Cyanophenyl)-5-methyl-N-(quinoxalin-2-yl)-1H-1,2,3-triazole-4-carboxamide] | > 92 µM |  |
| > 1000 nM | Cc1ccccc1-n1nnc(C(=O)Nc2ncc(-c3ccccc3)s2)c1C [YA4085, 5-Methyl-N-(5-phenylthiazol-2-yl)-1-(o-tolyl)-1H-1,2,3-triazole-4-carboxamide] | > 92 µM | 37% |
| > 1000 nM | Cc1ccccc1-n1nnc(C(=O)Nc2ccc3ccncc3c2)c1C [YA61691, N-(Isoquinolin-7-yl)-5-methyl-1-(o-tolyl)-1H-1,2,3-triazole-4-carboxamide] | > 92 µM |  |
| 18 nM | Cc1cccc(-n2nnc(C(=O)Nc3nc4ccccc4s3)c2C)c1C [YA4037] | > 92 µM | 83% |
| 1.8 nM | COc1ccccc1-n1nnc(C(=O)Nc2cnc3ccccc3n2)c1C [YA6136, 1-(2-Methoxyphenyl)-5-methyl-N-(quinoxalin-2-yl)-1H-1,2,3-triazole-4-carboxamide] | > 92 µM |  |
| 4 nM | Cc1ccccc1-n1nnc(C(=O)Nc2nc3ccc(F)cc3s2)c1C [YA4103, N-(6-Fluorobenzo[d]thiazol-2-yl)-5-methyl-1-(o-tolyl)-1H-1,2,3-triazole-4-carboxamide] | > 92 µM |  |
| > 1000 nM | Cc1c(C(=O)Nc2nc3ccccc3s2)nnn1-c1cccc(F)c1 [YA1072, N-(Benzo[d]thiazol-2-yl)-1-(3-fluorophenyl)-5-methyl-1H-1,2,3-triazole-4-carboxamide] | > 92 µM | 42% |
| 6.7 nM | CCc1ccccc1-n1ncc(C(=O)Nc2nc3ccccc3s2)c1C [YA4009, N-(Benzo[d]thiazol-2-yl)-1-(2-ethylphenyl)-5-methyl-1H-pyrazole-4-carboxamide] | > 92 µM |  |
| 0.5 nM | CCc1c(C(=O)Nc2nc3ccc(F)cc3s2)nnn1-c1ccccc1F [YA4165, 5-Ethyl-N-(6-fluorobenzo[d]thiazol-2-yl)-1-(2-fluorophenyl)-1H-1,2,3-triazole-4-carboxamide] | > 92 µM |  |
| > 1000 nM | Cc1ccccc1-n1ncc(C(=O)Nc2nc(-c3ccccc3)cs2)c1C [YA7015, 5-Methyl-N-(4-phenylthiazol-2-yl)-1-(o-tolyl)-1H-pyrazole-4-carboxamide] | > 92 µM |  |
| > 1000 nM | Cc1ccccc1-n1nnc(C(=O)Nc2cc3ccccc3cn2)c1C [YA6164, N-(Isoquinolin-3-yl)-5-methyl-1-(o-tolyl)-1H-1,2,3-triazole-4-carboxamide] | > 92 µM |  |
| > 1000 nM | Cc1c(C(=O)Nc2nc3ccccc3s2)nnn1-c1ccc(Br)cc1 [YA1086, N-(Benzo[d]thiazol-2-yl)-1-(4-bromophenyl)-5-methyl-1H-1,2,3-triazole-4-carboxamide] | > 92 µM | 32% |
| > 1000 nM | O=C(Nc1ccc2ccccc2n1)c1nnn(-c2ccccc2)n1 [YA6171, 2-Phenyl-N-(quinolin-2-yl)-2H-tetrazole-5-carboxamide] | > 92 µM |  |
| > 1000 nM | Cc1ccccc1C1CCC(C(=O)Nc2nc3ccccc3s2)C1 (centres unmarked) [YA4138] | > 92 µM |  |
| > 1000 nM | Cc1ccccc1-n1cc(C(=O)Nc2ccc3ccccc3n2)nn1 [YA70131, N-(Quinolin-2-yl)-1-(o-tolyl)-1H-1,2,3-triazole-4-carboxamide] | > 92 µM |  |
| 2.5 nM | Cc1c(C(=O)Nc2nc3ccccc3s2)nnn1-c1c(F)cccc1F [YA6090, N-(Benzo[d]thiazol-2-yl)-1-(2,6-difluorophenyl)-5-methyl-1H-1,2,3-triazole-4-carboxamide] | > 92 µM | 97% |
| > 1000 nM | Cc1ccccc1-n1nnc(C(=O)Nc2ccc3ncccc3c2)c1C [YA6056, 5-Methyl-N-(quinolin-6-yl)-1-(o-tolyl)-1H-1,2,3-triazole-4-carboxamide] | > 92 µM |  |

| IC50 [1] | SMILES | CC50 [2] | inhibition at 1 µM [1] |
| --- | --- | --- | --- |
| 19 nM | Cc1c(C(=O)Nc2nc3ccccc3s2)nnn1-c1c(Cl)cccc1Cl [YA1066, N-(Benzo[d]thiazol-2-yl)-1-(2,6-dichlorophenyl)-5-methyl-1H-1,2,3-triazole-4-carboxamide] | > 92 µM | 88% |
| 0.8 nM | Cc1c(C(=O)Nc2nc3ccccc3s2)nnn1-c1ccccc1Cl [YA6027, N-(Benzo[d]thiazol-2-yl)-1-(2-chlorophenyl)-5-methyl-1H-1,2,3-triazole-4-carboxamide] | > 92 µM | 98% |
| > 1000 nM | Cc1c(C(=O)Nc2nc3ccccc3s2)nnn1-c1cccc(Br)c1 [YA1050, N-(Benzo[d]thiazol-2-yl)-1-(3-bromophenyl)-5-methyl-1H-1,2,3-triazole-4-carboxamide] | > 92 µM | 7% |
| > 1000 nM | Cc1ccccc1-n1nnc(C(=O)Nc2nc(-c3ccccc3Br)cs2)c1C [YA4135] | > 92 µM |  |
| 0.11 nM | Cc1c(C(=O)Nc2cnc3ccccc3n2)nnn1-c1ccccc1Cl [YA6139, 1-(2-Chlorophenyl)-5-methyl-N-(quinoxalin-2-yl)-1H-1,2,3-triazole-4-carboxamide] | > 92 µM |  |
| 0.76 nM | CCc1c(C(=O)Nc2nc3ccccc3s2)nnn1-c1ccccc1F [YA4001, N-(Benzo[d]thiazol-2-yl)-5-ethyl-1-(2-fluorophenyl)-1H-1,2,3-triazole-4-carboxamide] | > 92 µM |  |
| > 1000 nM | Cc1ccccc1-n1nnc(C(=O)Nc2nc3ccccc3o2)c1C [YA4067] | > 92 µM | 14% |
| > 1000 nM | Cc1ccccc1-n1ncc(C(=O)Nc2ccc(-c3ccccc3)cn2)c1C [YA7018, 5-Methyl-N-(5-phenylpyridin-2-yl)-1-(o-tolyl)-1H-pyrazole-4-carboxamide] | > 92 µM |  |
| 8.8 nM | CC(C)c1c(C(=O)Nc2nc3ccccc3s2)nnn1-c1ccccc1F [YA4005, N-(Benzo[d]thiazol-2-yl)-1-(2-fluorophenyl)-5-isopropyl-1H-1,2,3-triazole-4-carboxamide] | > 92 µM | 99% |
| > 1000 nM | Cc1cc(Br)ccc1-n1nnc(C(=O)Nc2nc3ccccc3s2)c1C [YA6009] | > 92 µM | 15% |
| > 1000 nM | COc1cccc2sc(NC(=O)c3nnn(-c4ccccc4C)c3C)nc12 [YA4061, N-(4-Methoxybenzo[d]thiazol-2-yl)-5-methyl-1-(o-tolyl)-1H-1,2,3-triazole-4-carboxamide] | > 92 µM | 27% |
| 9.8 nM | Cc1c(C(=O)Nc2nc3ccccc3s2)cnn1-c1cccc(Cl)c1F [YA4021, N-(Benzo[d]thiazol-2-yl)-1-(3-chloro-2-fluorophenyl)-5-methyl-1H-pyrazole-4-carboxamide] | > 92 µM |  |
| 4.1 nM | Cc1ccccc1-n1nnc(C(=O)Nc2ccc3ccccc3n2)c1C [FX1128, reference compound] | > 92 µM |  |
| > 1000 nM | Cc1ccccc1-n1ncc(C(=O)Nc2ccc(-c3ccccc3)cc2)c1C [YA7016, N-([1,1′-biphenyl]-4-yl)-5-methyl-1-(o-tolyl)-1H-pyrazole-4-carboxamide] | > 92 µM |  |
| 3.6 nM | CCc1c(C(=O)Nc2nc3ccccc3s2)cnn1-c1ccccc1 [YA6143, N-(Benzo[d]thiazol-2-yl)-5-ethyl-1-phenyl-1H-pyrazole-4-carboxamide] | > 92 µM |  |
| > 1000 nM | Cc1c(C(=O)Nc2nc3ccccc3s2)nnn1-c1ccc(Cl)cc1 [YA1074, N-(Benzo[d]thiazol-2-yl)-1-(4-chlorophenyl)-5-methyl-1H-1,2,3-triazole-4-carboxamide] | > 92 µM | 18% |
| > 1000 nM | Cc1ccccc1-n1nnc(C(=O)Nc2nc3ccc(Br)cc3s2)c1C [YA4059, N-(6-Bromobenzo[d]thiazol-2-yl)-5-methyl-1-(o-tolyl)-1H-1,2,3-triazole-4-carboxamide] | > 92 µM | 31% |
| 1.8 nM | Cc1c(C(=O)Nc2nc3ccccc3s2)nnn1-c1ccccc1Br [YA4003, N-(Benzo[d]thiazol-2-yl)-1-(2-bromophenyl)-5-methyl-1H-1,2,3-triazole-4-carboxamide] | > 92 µM | 100% |
| > 1000 nM | Cc1ccccc1-n1nnc(C(=O)Nc2nc3c(Br)cccc3s2)c1C [YA4097, N-(4-Bromobenzo[d]thiazol-2-yl)-5-methyl-1-(o-tolyl)-1H-1,2,3-triazole-4-carboxamide] | > 92 µM | 11% |
| > 1000 nM | Cc1ccccc1-n1nnc(C(=O)Nc2ncc3ccccc3n2)c1C [YA6061, 5-Methyl-N-(quinazolin-2-yl)-1-(o-tolyl)-1H-1,2,3-triazole-4-carboxamide] | > 92 µM |  |
